Test results from patent US10201530B2, “Treatment of BRCA1-defective cancer or resistant cancers” (City of Hope, priority 2014, dated 2019).

Tests used:
zebrafish embryos = test: Zebrafish genotoxicity assay; format: in vivo, Danio rerio; conditions: wild-type zebrafish embryos, COH29 0-100 μM
Method: Zebrafish (Danio rerio) were obtained from zebrafish Core facility of Taipei Medical University and maintained at 28° C. on a 14 h light/10 h dark cycle. Embryos were incubated at 28° C. and different developmental stages were determined as described (25). Wild-type embryos were treated with different concentrations of HU (0, 5, […], 20, 50 mM) or COH29 (0, 10, 20, 50, 100 μM) at 20 hpf to evaluate the mutagenic effect. Fifteen embryos were treated per well condition. […] Embryos were observed using an Olympus IX70-FLA inverted fluorescence microscope. Images were taken using SPOT digital camera system (Diagnostic Instruments, Sterling Heights, Mich., USA) and assembled with ImageJ software (26).

HCC1937+BRCA1 tumors = test: Orthotopic tumor explant model, HCC1937+BRCA1; format: in vivo; conditions: HCC1937+BRCA1 tumors in NSG mice, daily oral 400 mg/kg; p=0.1577
Method: Experiments in mice were conducted under a protocol approved by the IACUC of City of Hope. Because HCC1937 and HCC1937+BRCA1 cells from slow-growing tumors, they were implanted using MATRIGEL™ (Becton-Dickinson Biosciences). To establish tumors 4×10^6 cells in 200 μL serum-free medium containing 50% MATRIGEL™ were injected into the mammary fat pads around the inguinal area of a pair of 8 week old female NSG mice. Once the initial tenors reached 13 mm in diameter, they were dissected out minced into 3 mm pieces and implanted into the inguinal area of the mammary fat pads of the experimental mice Tumors were measured over a 28-day period, and for each time point, the student t-test was used to determine the statistical significance between daily gavage with 400 mg/kg COH29 in 30% solutol and corresponding vehicle control. The p value less than 0.05 (2 sides) was considered to indicate statistical significance

OVCAR-4 = test: Cytotoxicity, OVCAR-4 cells; format: cell-based, human; conditions: Homo sapiens, read-out: IC50, mean ± SEM
Method: (§1) All cell lines were acquired from the American Type Culture Collection (Manassas, Va., USA). Cells were maintained in RPMI 1640 medium (Mediatech) with 10% fetal bovine serum, 2 mM glutamine, and 100 U of penicillin and 100 μg of streptomycin per ml of medium (Sigma) at 37° C. in 5% CO2. To isolate HCC1437+BRCA1 cells, parental HCC1937 cells were transfected with pcDNA3.1 plasmid expressing full-length BRCA1 cDNA. Stable transfectant clones were selected and used for drug sensitivity assays. For stable transfection, cells at 30-40% confluence were incubated overnight with […] of plasmid DNA, using FUGENE® 6 transfectin reagent (Roche Molecular Biochemical, Monza, Italy) according to the manufacturer's instructions. Cells were then selected in puromycin (1 μg/ml) (Invitrogen life Technologies, La Jolla, Calif., USA.) After 20 to 30 days, viable puromycin-resistant colonies from HCC1937 transfections were expanded and screened. The clones that stably expressed […] and retained growth potential were assayed for BRCA1 expression by Western blot analysis. By Western blot analysis, we evaluated the restoration of BRCA1 expression in the puromycin-resistant cDNA/transfectant cells.
The MTT cytotoxicity assay was performed by incubating with MTT and monitoring the MTT formazan formed by viable cells with a microplate reader at a wavelength of 560 nm; the survival, ratio was determined using the formula: (Atest−Ablank)/(Acontrol−Ablank)×100%. The cytotoxicity was determined in 96-well plates using the semiautomatic fluorescence-based Digital Imaging Microscopy System (DIMSCAN). DIMSCAN uses digital imaging microscopy to quantify viable cells, which selectively accumulate FDA (fluorescein diacetate; Alfa Aesar, Ward Hill, Mass.). DIMSCAN is capable of measuring cytotoxicity over a 4 log dynamic range by quantifying total fluorescence per well (which is proportional to the number of viable cells) after elimination of the background fluorescence by digital thresholding and eosin Y (Mallinckrodt Baker, Center Valley, Pa.) quenching. Cells were seeded into 96-well plates in 100 μL of complete medium at 2,000 to 5,000 cells per well depending on cell line growth rate. After overnight incubation, test compound was added to each well at various concentrations in 50 μL of culture medium. After incubation with the drugs for 96 hours at 37° C., FDA (final concentration: […]) and eosin Y [final concentration: 0.1% (w/v)] were added to each well and the cells were incubated for an additional 20 minutes at 37° C. Total fluorescence per well was then measured using DIMSCAN, and the results were expressed as the ratio of the fluorescence in treated wells to the fluorescence in untreated wells (survival fraction).

PARP1 = biological target: T1, PARP1 (Homo sapiens, UniProt P09874); test: PARP1 activity in lysates of treated cells (chemiluminescent assay kit); format: cell-based
T1 construct: endogenous in cells; host or cells: HCC1937, HCC1937+BRCA1, UWB1.289, UWB1.289+BRCA1 (human breast / ovarian cancer lines)
Method: The PARP1 activity was determined using the PARP1 Chemiluminscent Assay Kit (BPS Bioscience, San Diego) according to the manufacturer's protocol. Briefly, the ribosylation reaction was carried out with activated DNA in PARP assay buffer using test inhibitor, positive control, substrate control and blank reactions, for 1 hour at 25° C. Detection was by streptavidin-HRP with chemiluminescent substrate A and B read in a luminometer.

HCC1937 = test: Cytotoxicity, HCC1937 cells; format: cell-based, human; conditions: Homo sapiens; HCC1937, triple negative, BRCA1 mutant; COH29 72 h
Method: as §1
(§2) The MTT cytotoxicity assay was performed by incubating with MTT and monitoring the MTT formazan formed by viable cells with a microplate reader at a wavelength of 560 nm; the survival, ratio was determined using the formula: (Atest−Ablank)/(Acontrol−Ablank)×100%. The cytotoxicity was determined in 96-well plates using the semiautomatic fluorescence-based Digital Imaging Microscopy System (DIMSCAN). DIMSCAN uses digital imaging microscopy to quantify viable cells, which selectively accumulate FDA (fluorescein diacetate; Alfa Aesar, Ward Hill, Mass.). DIMSCAN is capable of measuring cytotoxicity over a 4 log dynamic range by quantifying total fluorescence per well (which is proportional to the number of viable cells) after elimination of the background fluorescence by digital thresholding and eosin Y (Mallinckrodt Baker, Center Valley, Pa.) quenching. […]

HCC1937 + BRCA1 = test: Cytotoxicity, HCC1937+BRCA1 cells; format: cell-based, human; conditions: Homo sapiens; HCC1937 + BRCA1, triple negative; COH29 72 h
Method: as §1, §2

T1 sequence (P09874 whole entry): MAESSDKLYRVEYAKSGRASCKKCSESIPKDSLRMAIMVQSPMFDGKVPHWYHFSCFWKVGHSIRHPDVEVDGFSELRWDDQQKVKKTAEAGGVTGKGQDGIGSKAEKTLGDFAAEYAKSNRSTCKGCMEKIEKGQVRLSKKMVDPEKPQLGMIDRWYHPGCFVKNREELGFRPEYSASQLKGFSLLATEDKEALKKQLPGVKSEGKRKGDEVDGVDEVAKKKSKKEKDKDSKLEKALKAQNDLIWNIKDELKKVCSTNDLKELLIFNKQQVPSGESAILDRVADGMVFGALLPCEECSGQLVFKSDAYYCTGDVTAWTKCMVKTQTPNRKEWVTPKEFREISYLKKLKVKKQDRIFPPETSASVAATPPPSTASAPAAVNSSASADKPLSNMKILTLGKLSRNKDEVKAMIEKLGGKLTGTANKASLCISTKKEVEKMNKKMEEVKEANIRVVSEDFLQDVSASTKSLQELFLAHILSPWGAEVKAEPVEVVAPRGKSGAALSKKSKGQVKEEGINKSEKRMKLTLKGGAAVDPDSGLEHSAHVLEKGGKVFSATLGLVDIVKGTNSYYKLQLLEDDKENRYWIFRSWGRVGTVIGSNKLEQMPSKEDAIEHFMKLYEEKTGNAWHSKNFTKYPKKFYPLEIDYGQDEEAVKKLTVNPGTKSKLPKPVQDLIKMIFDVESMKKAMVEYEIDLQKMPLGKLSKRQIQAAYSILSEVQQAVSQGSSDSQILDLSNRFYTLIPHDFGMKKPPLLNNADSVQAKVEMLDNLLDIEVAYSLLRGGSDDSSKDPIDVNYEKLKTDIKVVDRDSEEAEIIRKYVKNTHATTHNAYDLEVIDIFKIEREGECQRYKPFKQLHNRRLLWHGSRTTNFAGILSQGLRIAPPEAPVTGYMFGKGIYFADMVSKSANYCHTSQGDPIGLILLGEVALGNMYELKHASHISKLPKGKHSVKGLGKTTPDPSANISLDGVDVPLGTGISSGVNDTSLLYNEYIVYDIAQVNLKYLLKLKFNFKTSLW

For `O=C(Nc1nc(-c2ccc(O)c(O)c2)c(-c2ccccc2)s1)c1ccc(O)c(O)c1` [COH29], the viability (zebrafish embryos) was “no developmental defects (FIG. 5C) or decrease in viability”, the developmental defects (zebrafish embryos; HU 0-50 mM) was “no developmental defects” and the “tumor size compared to vehicle controls” value (HCC1937+BRCA1 tumors) was “not significantly smaller”. The IC50 (OVCAR-4) was 11.2 ± 1.51 µM, the “PARP1 activity, treated cells” value (PARP1; HCC1937+BRCA1, 24 h, untreated 2336878 cps) was 2041097 cps and the “PARP1 activity, treated cells” value (PARP1; HCC1937, 24 h, untreated 726177 cps) was 427851 cps. For the same molecule, the “PARP1 activity, treated cells” value (PARP1; UWB1.289+BRCA1, 8 h, untreated printed 145769 cps) was 2129944 cps, the “PARP1 activity, treated cells” value (PARP1; UWB1.289, 8 h, untreated printed 113559 cps) was 774611 cps and the IC50 (HCC1937) was 7.25 ± 0.64 µM. It also gave an IC50 (HCC1937 + BRCA1) of 35 ± 3.63 µM.
